# Measurements taken from patent publication US10570117B2, “Phenylimidazole compound” (Otsuka Pharmaceutical Factory, Inc., priority 2015, dated 2020).
# Where two headings read alike, the source gives them in different places.
# Columns and labels:
# [1] = Solubility in gastric juice or intestinal juice model fluid (precipitation method using DMSO); type: physicochemical; details: room temperature
# Procedure: Solubility in Gastric Juice or Intestinal Juice Model Fluid
# Measurement was performed by a precipitation method using DMSO. Specifically, each of the dimethyl sulfoxide (DMSO) solutions of the compounds was individually added to 1st fluid for Disintegration Test of Japanese Pharmacopoeia (pH: 1.2) or 2nd fluid for Disintegration Test of Japanese Pharmacopoeia (pH: 6.8), and the mixtures were stirred by shaking at room temperature for 24 hours. Subsequently, insoluble substances in each mixture were removed by filtration, and the UV absorption of each filtrate was measured. The obtained values were individually applied to the calibration curves of the compounds prepared in advance to calculate the concentrations of the compounds dissolved (μg/mL).
# [2] = system: lipoprotein lipase (LPL) gene; assay: LPL mRNA elevating action (RT-PCR quantification of LPL mRNA in C2Cl2 cells); type: cell-based, mouse; details: Mus musculus, 24 h, compound 10 μM, ratio relative to the amount of LPL mRNA in cells with DMSO only, read-out: Rate of increase in LPL mRNA
# Procedure: LPL mRNA Elevating Action
# C2Cl2 cells (cell strain derived from striated muscle of mouse) were seeded in 96-well plates using a DMEM medium (Gibco) (containing 2 mM L-glutamine and 10% fetal bovine serum). After the cells were grown, the medium was removed. Subsequently, media obtained by adding dimethyl sulfoxide (DMSO) solutions of the compounds to the same medium as described above to a concentration of 10 μM were individually added to the cells and allowed to stand for 24 hours. The compound-containing media were removed, and the plates were washed with phosphate buffered saline. Thereafter, the remaining cells were lysed and subjected to a reverse transcription polymerase chain reaction (RT-PCR reaction) to obtain cDNA. Primers specific to lipoprotein lipase (LPL) gene, a necessary enzyme, etc., were added to the obtained cDNA. The mixture was set in 7500 Fast Real Time PCR System produced by Applied Biosystem to perform a PCR reaction (20 cycles) and the amount of LPL mRNA amplified was quantified. The LPL mRNA elevating action of each compound in the test cells was indicated as the ratio relative to the amount of LPL mRNA in cells allowed to stand in a medium to which only DMSO was added, with the amount being defined as 1.
# As Comparative Example 1, a test was performed in the same manner as above, using a compound disclosed as the compound of Example 57 in WO2010/090200.
# [3] = pH 1.2, simulated gastric fluid, kinetic from dmso stock, 1st fluid for Disintegration Test of Japanese Pharmacopoeia (pH: 1.2), read-out: Solubility (μg/mL) 1st fluid
# [4] = pH 6.8, kinetic from dmso stock, 2nd fluid for Disintegration Test of Japanese Pharmacopoeia (pH: 6.8), read-out: Solubility (μg/mL) 2nd fluid
SMILES,"solubility at 24 h [1, 3]","solubility at 24 h [1, 4]",melting point,fold induction at 10 µM [2]
COc1cc(OCc2ccc(C(F)(F)F)nc2)c(C)cc1-c1cnc(C2CCC(F)(F)CC2)[nH]1 [Example 12],15.6 µg/mL,< 1.7 µg/mL,–,2.23
COc1cc(-c2[nH]c(-c3ccc(C)nc3)nc2Cl)ccc1OCc1ncc(C(F)(F)F)cc1F [Example 405],–,–,–,2.78
COc1cc(-c2c[nH]c(C3CCCCCC3)n2)ccc1OCc1ccc(C(F)(F)F)cn1 [Example 72],> 116 µg/mL,1.8 µg/mL,–,2.75
COc1cc(OCc2ccc(C(F)(F)F)nc2)ccc1-c1cnc(C2CCC(F)(F)C2)[nH]1 (stereo not drawn) [Example 3],87.5 µg/mL,1 µg/mL,–,2.48
COc1cc(OCc2ncc(C(F)(F)F)cc2F)ccc1-c1[nH]c(-c2ccc(C)nc2)nc1Cl [Example 404],–,–,–,3.26
COc1cc(OCc2ccc(C(F)(F)F)nc2)ccc1-c1nc(C2CCCCC2)[nH]c1C [Example 48],> 89 µg/mL,80.8 µg/mL,–,3.02
COc1cc(OCc2ncc(C(F)(F)F)cc2F)ccc1-c1[nH]c(C2CC(F)(F)C2)nc1F [Example 401],–,–,–,2.9
COc1cc(OCc2ncc(C(F)(F)F)cc2F)ccc1-c1cnc(-c2ccc(C)nc2)[nH]1 [Example 402],–,–,–,2.37
COc1cc(-c2cnc(-c3ccc(C)nc3)[nH]2)ccc1OCc1ncc(C(F)(F)F)cc1F [Example 403],–,–,–,2.09
COc1cc(OCc2ccc(C(F)(F)F)cn2)ccc1-c1c[nH]c(-c2ccc(N3CCCC3)nc2)n1 [Example 58],94.4 µg/mL,16.5 µg/mL,227 to 231 °C (dec.),–
COc1cc(-c2c[nH]c(C3CCC(C)CC3)n2)ccc1OCc1ccc(C(F)(F)F)cn1 (stereo not drawn) [Example 64],56.2 µg/mL,2.6 µg/mL,147 to 150 °C,–
COc1cc(OCc2ccc(C(F)(F)F)cn2)ccc1-c1c[nH]c(C2CCCCCC2)n1 [Example 75],83.1 µg/mL,1 µg/mL,202 to 204 °C (dec.),–
COc1cc(OCc2ccc(C(F)(F)F)cn2)ccc1-c1c[nH]c(-c2ccc(F)cn2)n1 [Example 41],23.3 µg/mL,1.3 µg/mL,152 to 154 °C,–
COc1cc(-c2c[nH]c(C3CCCCCC3)n2)cc(OC)c1OCc1ccc(C(F)(F)F)cn1 [Example 74],53.6 µg/mL,1.8 µg/mL,177 to 179 °C,–
COc1cc(-c2c[nH]c(C34CC5CC(CC(C5)C3)C4)n2)cc(OC)c1OCc1ccc(C(F)(F)F)cn1 [Example 66],56.9 µg/mL,0.9 µg/mL,144 to 168 °C,–
COc1cc(OCc2ncc(Cl)cc2C(F)(F)F)ccc1-c1cnc(-c2ccc(F)nc2)[nH]1 [Example 138],–,–,–,2.97
COc1cc(-c2nc(-c3ccc(Cl)cn3)[nH]c2C)ccc1OCc1ccc(C(F)(F)F)nc1 [Example 29],3 µg/mL,0.6 µg/mL,267 to 269 °C,–
COc1cc(OCc2ccc(C(F)(F)F)cn2)ccc1-c1c[nH]c(C2CCC(F)(F)CC2)n1 [Example 61],> 101 µg/mL,1.6 µg/mL,232 to 237 °C,–

# Second part, led by results:
"solubility at 24 h [1, 3]","solubility at 24 h [1, 4]",melting point,SMILES,fold induction at 10 µM [2]
> 62 µg/mL,59.7 µg/mL,–,COc1cc(O)ccc1-c1cnc(C2CCC(F)(F)CC2)[nH]1 [Example 338],1.32
79.2 µg/mL,39.7 µg/mL,–,"Fc1ccc(-c2ncc(-c3ccc(OCc4ncc(C(F)(F)F)cc4F)cc3OCc3ccccc3)[nH]2)cn1 [Example 398, 2-[(3-(benzyloxy)-4-(2-(6-fluoropyridin-3-yl)-1H-imidazol-5-yl)phenoxy)methyl]-3-fluoro-5-(trifluoromethyl)pyridine]",2.22
95.5 µg/mL,5 µg/mL,–,CCc1nc(-c2ccc(F)nc2)[nH]c1-c1ccc(OCc2ncc(C(F)(F)F)cc2F)cc1OC [Example 362],2.89
91.7 µg/mL,15.8 µg/mL,–,COc1cc(-c2cnc(C3CCC(F)(F)C3)[nH]2)ccc1OCc1ncc(C(F)(F)F)cc1F (stereo not drawn) [Example 341],1.75
73.9 µg/mL,72.5 µg/mL,–,COc1cc(OCc2ncc(C(F)(F)F)cc2F)ccc1-c1cnc(C2CC2)[nH]1 [Example 375],1.83
74.8 µg/mL,62.1 µg/mL,–,COc1cc(-c2cnc(C(C)C)[nH]2)ccc1OCc1ncc(C(F)(F)F)cc1F [Example 382],1.41
80.2 µg/mL,2.6 µg/mL,–,COc1cc(OC(C)c2ccc(C(F)(F)F)cn2)ccc1-c1c[nH]c(-c2ccc(F)nc2)n1 (stereo not drawn) [Example 117],3.38
> 85 µg/mL,< 7.5 µg/mL,182 to 184 °C,COc1cc(OCn2cccn2)ccc1-c1[nH]c(C2CCC(F)(F)CC2)nc1Cl [Example 196],–
5 µg/mL,< 0.3 µg/mL,> 230 °C,"COc1cc(OCc2ncc(C(F)(F)F)cc2F)ccc1-c1cnc(-c2ccc(F)nc2)[nH]1 [Example 139, 3-fluoro-2-[[4-(2-(6-fluoropyridin-3-yl)-1H-imidazol-5-yl)-3-methoxyphenoxy]methyl]-5-(trifluoromethyl)pyridine]",–
< 8.5 µg/mL,3.4 µg/mL,186 to 193 °C (dec.),COc1cc(OCc2ccc(C(F)(F)F)nc2)ccc1-c1nc(-c2ccc(F)cn2)[nH]c1Cl [Example 226],–
8.7 µg/mL,0.9 µg/mL,215 to 217 °C,COc1cc(OCc2ccc(C(F)(F)F)cn2)ccc1-c1c[nH]c(-c2ccc(Cl)nc2)n1 [Example 94],–
92.5 µg/mL,8.9 µg/mL,164 to 186 °C,COc1cc(OCc2ncc(C(F)(F)F)cc2F)ccc1-c1cnc(-c2ccc(Cl)nc2)[nH]1 [Example 102],–
108 µg/mL,1.6 µg/mL,177 to 182 °C,COc1cc(OCc2ccc(C(F)(F)F)nc2)ccc1-c1nc(-c2ccc(Cl)nc2)n(C)c1Br [Example 298],–
> 78 µg/mL,41.1 µg/mL,153 to 155 °C,COc1cc(-c2c[nH]c(C3CC3)n2)ccc1OCc1ccc(C(F)(F)F)cn1 [Example 82],–
15.2 µg/mL,2.2 µg/mL,201 to 203 °C,COc1cc(-c2c[nH]c(-c3ccc(C(F)(F)F)nc3)n2)ccc1OCc1ccc(C(F)(F)F)cn1 [Example 97],–
> 98 µg/mL,0.6 µg/mL,172 to 174 °C,COCn1cc(-c2ccc(OCc3ccc(C(F)(F)F)cn3)cc2OC)nc1-c1ccc(F)nc1 [Example 166],–
10 µg/mL,0.9 µg/mL,> 280 °C,COc1cc(-c2c[nH]c(-c3ccc(Cl)nc3)n2)ccc1OCc1ccc(C(F)(F)F)cn1 [Example 93],–
39.4 µg/mL,0.7 µg/mL,217 to 220 °C,COc1cc(-c2c[nH]c(-c3ccccn3)n2)ccc1OCc1ccc(C(F)(F)F)cn1 [Example 87],–
7.8 µg/mL,4.8 µg/mL,188 to 191 °C,COc1cc(OCc2ncc(F)cc2F)ccc1-c1cnc(-c2ccc(F)nc2)[nH]1 [Example 140],–
11.3 µg/mL,2.7 µg/mL,183 to 186 °C,COc1cc(OCc2cc(C(F)(F)F)ccn2)ccc1-c1cnc(-c2ccc(F)nc2)[nH]1 [Example 114],–
> 92 µg/mL,1.4 µg/mL,163 to 165 °C,COc1cc(OCc2ccc(C(F)(F)F)nc2)ccc1-c1cn(C)c(-c2ccc(F)nc2)n1 [Example 163],–
9.7 µg/mL,2.6 µg/mL,193 to 196 °C,COc1cc(OCc2ccc(C(F)(F)F)nc2)ccc1-c1nc(-c2ccc(Cl)cn2)[nH]c1Cl [Example 228],–
< 0.3 µg/mL,23.4 µg/mL,137 to 139 °C,COc1cc(O[C@@H](C)c2ccc(C(F)(F)F)cc2)ccc1-c1[nH]c(-c2ccc(F)nc2)nc1Cl [Example 288],–
